Data: patent publication US20260345795A1, “MULTIVALENCY FOR ENZYME INHIBITION” (Indiana University Research and Technology Corporation, priority 2022, published 2026)
“And” between values parts separate entries of the source, which are not always exact repeats. Equal entries are not always repeated. “Also recorded” adds a separate entry of the source. Where two headings read alike, the source gives them in different places.

Assays:
tPA = tPA (Homo sapiens, UniProt P00750); experiment: tPA inhibition assay with chromogenic tPA substrate S-2288, Dixon plot analysis; format: biochemical; settings: role: inhibitor; for Ki / tPA inhibition relative to another inhibitor: tPA 75 nM, S-2288 100-500 μM; for Ki: PBS pH 7.4, read-out: Inhibition constant (Ki); for tPA inhibition compared to plasmin: tPA vs plasmin
Method: Inhibition assays were performed using a fixed tPA concentration of 75 nM in PBS pH 7.4 over a range of Chromogenic tPA Substrate (S-2288) concentrations of 100-500 μM.

thrombin = thrombin (Homo sapiens, UniProt P00734); experiment: Thrombin inhibition assay with fluorogenic Thrombin Substrate III, Dixon plot analysis; format: biochemical; settings: role: inhibitor; for Ki: PBS pH 7.4, 10% DMSO, read-out: Inhibition constant (Ki); for thrombin inhibition compared to plasmin: thrombin vs plasmin
Method: In this example, commercially available inhibitors shown in Table 1, Tri-AMB and all hetero-multivalent inhibitors were tested for their thrombin inhibition. Inhibition assays were performed using a fixed thrombin concentration of 0.25 U/mL in PBS pH 7.4 over a range of Thrombin Substrate III (fluorogenic) concentrations of 20-50 μM at 10% DMSO.

Human plasmin = biological target: T1, Human plasmin (Homo sapiens, UniProt P00747); experiment: Plasmin inhibition assay with chromogenic substrate S-2251, Dixon plot / Cornish-Bowden analysis; format: biochemical; settings: role: inhibitor; for mode of inhibition (Cornish-Bowden plot): S-2251; for rp: relative potency = Ki^AMB/Ki^multi: benzamidine inhibitors relative to AMB; for rp/n: relative potency/number of benzamidine units: relative to AMB per benzamidine unit; for rp1: relative potency = Ki^AMB/Ki^multi: hetero-bivalent inhibitors relative to AMB; for rp2: relative potency = Ki^TXA or EACA/Ki^multi: hetero-bivalent inhibitors relative to TXA or EACA
T1 construct: a heavy chain (~60 kDa) comprising 5 kringle domains
Method: Inhibition assays were performed on all synthesized multivalent affinity molecules in addition to free AMB and Pentamidine. […] Ki values were calculated for all multivalent affinity molecules via Dixon Plot analysis using the negative x-intersection point. […] A smaller Ki value indicates a higher degree of inhibition. Cornish-Bowden graphs (S/Vo vs I) were also plotted to verify the type of inhibition, i.e., competitive, uncompetitive, non-competitive, or mixed.
Parameters used to quantify multivalency, namely, relative potency (rp), and relative potency per unit (rp/n) were also computed. To evaluate the strength of the multivalent affinity molecules as compared to the monovalent affinity molecules, rp was used and is a ratio of Ki^mono to Ki^multi Ki of monovalent AMB was used for this calculation since AMB was utilized for synthesis of the multivalent affinity molecules. […] To better evaluate multivalency effects, rp/n was also computed to determine the benefit of linking multiple affinity moieties together.
Human plasmin (42.5 nM) over a range of inhibitor concentrations (0-2 mM) and chromogenic substrate concentrations (Chromogenix S-2251 100-500 μM) were utilized for Inhibition assays.
Human plasmin (42.5 nM) over a range of inhibitor concentrations (0-500 μM) and chromogenic substrate concentrations (Chromogenix S-2251 100-500 μM) were utilized for Inhibition assays.
In this example, homo-multivalent and hetero multivalent micelles were synthesized to determine their plasmin inhibition. […] After weighing and mixing the appropriate lipids amounts in chloroform, a lipid film was made by slowly evaporating chloroform while rotating the vial gently under air. The dried lipid film was placed in a desiccator under vacuum overnight. The lipid film was rehydrated using 2 mL PBS and was sonicated for 2 mins while heating at 60° C. to obtain more rapid and less polydisperse micelle formation by self-assembly. […] Human plasmin (42.5 nM) over a range of inhibitor concentrations (0-500 μM) and chromogenic substrate concentrations (Chromogenix S-2251 100-500 μM) were utilized for Inhibition assays.

[1] = system: light chain and kringle 5 of plasmin; settings: cited from earlier work
plasmin = settings: role: inhibitor; Alves et al.; cited from earlier work
[2] = biological target: LBS sites on other kringle domains of plasmin; settings: role: inhibitor; cited from earlier work
[3] = treatment delayed beyond 3 hours; cited from earlier work
[4] = thrombin 0.25 U/mL, Thrombin Substrate III 20-50 μM
[5] = hetero-bivalent inhibitors, human plasmin 42.5 nM, S-2251 100-500 μM, read-out: Inhibition constant (Ki)
[6] = substrate S-2251 100-500 μM, plasmin 42.5 nM, PBS pH 7.4, benzamidine inhibitors, Dixon plot, read-out: Inhibition constant (Ki)

Sequence of tPA (P00750 36-562, species assumed): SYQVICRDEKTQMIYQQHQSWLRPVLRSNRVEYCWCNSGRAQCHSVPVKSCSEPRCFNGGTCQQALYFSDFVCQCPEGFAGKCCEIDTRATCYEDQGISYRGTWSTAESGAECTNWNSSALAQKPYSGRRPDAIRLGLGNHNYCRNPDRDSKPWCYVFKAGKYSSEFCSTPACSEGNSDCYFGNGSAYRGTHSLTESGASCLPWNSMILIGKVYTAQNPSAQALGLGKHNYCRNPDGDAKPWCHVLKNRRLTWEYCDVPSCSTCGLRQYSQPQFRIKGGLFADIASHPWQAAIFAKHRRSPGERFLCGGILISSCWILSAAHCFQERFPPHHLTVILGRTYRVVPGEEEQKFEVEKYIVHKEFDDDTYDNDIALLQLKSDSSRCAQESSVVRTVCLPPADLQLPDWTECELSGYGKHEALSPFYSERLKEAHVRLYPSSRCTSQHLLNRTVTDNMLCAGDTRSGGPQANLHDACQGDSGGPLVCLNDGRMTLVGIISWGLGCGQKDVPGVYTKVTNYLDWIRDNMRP
T1 sequence (P00747 581-810 limits assumed): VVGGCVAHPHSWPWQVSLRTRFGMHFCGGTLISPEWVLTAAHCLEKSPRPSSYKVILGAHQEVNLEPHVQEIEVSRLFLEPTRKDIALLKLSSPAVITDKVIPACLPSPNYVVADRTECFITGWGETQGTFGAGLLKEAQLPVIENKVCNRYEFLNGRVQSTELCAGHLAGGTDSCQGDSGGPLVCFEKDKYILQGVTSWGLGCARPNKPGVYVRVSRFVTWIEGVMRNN
T1 sequence (P00747 97-580 limits assumed): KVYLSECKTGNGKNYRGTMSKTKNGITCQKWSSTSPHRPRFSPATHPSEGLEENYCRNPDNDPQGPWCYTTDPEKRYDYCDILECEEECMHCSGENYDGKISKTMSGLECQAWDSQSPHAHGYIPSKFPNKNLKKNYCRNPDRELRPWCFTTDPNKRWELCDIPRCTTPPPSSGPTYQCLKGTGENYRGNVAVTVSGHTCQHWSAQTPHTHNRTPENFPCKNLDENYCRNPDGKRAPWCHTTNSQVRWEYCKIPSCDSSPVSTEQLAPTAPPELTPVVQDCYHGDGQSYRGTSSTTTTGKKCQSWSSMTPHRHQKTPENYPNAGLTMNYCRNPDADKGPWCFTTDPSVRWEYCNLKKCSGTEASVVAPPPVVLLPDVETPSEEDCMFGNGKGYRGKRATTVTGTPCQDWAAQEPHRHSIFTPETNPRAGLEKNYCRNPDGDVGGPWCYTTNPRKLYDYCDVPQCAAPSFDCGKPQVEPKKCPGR

N=C(N)c1ccc(N)cc1 [4-amino benzamidine, 4-Aminobenzamidine, reference compound]
Ki (tPA): 148 ± 0.9 µM

N=C(N)c1ccc(C(=O)O)cc1 [4-carboxy benzamidine, 4-Carboxybenzamidine, reference compound]
Ki (thrombin; [4]): 151 ± 4 µM

N=C(N)c1ccc(CN)cc1 [AMB, 4-aminomethyl benzamidine, reference compound]
Ki (Human plasmin; [5]): 1.4 ± 0.166 mM
mode of inhibition (Cornish-Bowden plot) (Human plasmin; plasmin 42.5 nM, PBS pH 7.4): competitive inhibitor
Ki (Human plasmin; [6]): 1.4 mM
Ki (thrombin; [4]): 344 ± 33 µM
Ki (tPA): 5210 ± 161 µM

N=C(N)c1ccccc1 [Benzamidine]
subsite binding [1]: weak subsite binding

NC[C@H]1CC[C@H](C(=O)NCCCC[C@H](NC(=O)[C@H]2CC[C@H](CN)CC2)C(N)=O)CC1 [Bis-TXA]
Ki (Human plasmin; TXA affinity molecules, human plasmin 42.5 nM, S-2251 100-500 μM, read-out: Inhibition constant (Ki)): 6.4 ± 2.03 mM
Ki (Human plasmin; human plasmin 42.5 nM, S-2251 100-500 μM, text value in mM, read-out: Ki (active site inhibition of plasmin)): 6.4 mM
rp: relative potency = Ki^TXA/Ki^multi (Human plasmin; plasmin, TXA affinity molecules relative to TXA, S-2251 100-500 μM): 3.3
rp/n: relative potency/number of TXA units (Human plasmin; plasmin, relative to TXA per TXA unit, S-2251 100-500 μM): 1.7

N=C(N)c1ccc(CNC(=O)CCOCCOCCC(=O)NCc2ccc(C(=N)N)cc2)cc1 [Bis-dPEG2-AMB]
mode of inhibition (Cornish-Bowden plot) (Human plasmin; plasmin 42.5 nM, PBS pH 7.4): competitive inhibition; also recorded: competitive inhibitor
rp: relative potency = Ki^AMB/Ki^multi (Human plasmin; plasmin, S-2251 100-500 μM): 25.2
rp/n: relative potency/number of benzamidine units (Human plasmin; plasmin, S-2251 100-500 μM): 12.6

NCCCCCC(=O)O [EACA, ε-Aminocaproic Acid, reference compound]
Ki (thrombin; [4]): > 10000 µM

N=C(N)c1ccc(CNC(=O)CCOCCOCCOCCOCCNC(=O)CCCCCN)cc1 [EACA-dPEG4-AMB]
Ki (Human plasmin; [5]): 0.233 ± 0.005 mM
rp1: relative potency = Ki^AMB/Ki^multi (Human plasmin; plasmin, S-2251 100-500 μM): 6
rp2: relative potency = Ki^TXA or EACA/Ki^multi (Human plasmin; plasmin, S-2251 100-500 μM): 305
Ki (thrombin; [4]): 5.6 ± 0.2 µM

N=C(N)c1ccc(OCCCCCOc2ccc(C(=N)N)cc2)cc1 [Pentamidine, reference compound]
mode of inhibition (Cornish-Bowden plot) (Human plasmin; plasmin 42.5 nM, PBS pH 7.4): competitive inhibitor
rp: relative potency = Ki^AMB/Ki^multi (Human plasmin; plasmin, S-2251 100-500 μM): 664.3
rp/n: relative potency/number of benzamidine units (Human plasmin; plasmin, S-2251 100-500 μM): 332.1
Ki (Human plasmin; [6]): 0.0021 mM and 0.0026 mM
thrombin inhibition relative to another inhibitor (thrombin; [4]): slightly stronger thrombin inhibitor than Tri-AMB
Ki (thrombin; [4]): 4.5 ± 2.3 µM
thrombin inhibition compared to plasmin (thrombin): slightly weaker thrombin inhibitors compared to plasmin
tPA inhibition relative to another inhibitor (tPA): stronger inhibitor than Tri-AMB
Ki (tPA): 48 ± 12 µM
tPA inhibition compared to plasmin (tPA): weaker tPA inhibitors compared to plasmin
fold stronger plasmin inhibitor than the strongest monovalent benzamidine (plasmin): 15 fold

NC[C@H]1CC[C@H](C(=O)O)CC1 [TXA, Tranexamic acid]
Ki [2]: 0.75 µM
clinical trial outcome of delayed treatment [3]: ineffective or harmful

N=C(N)c1ccc(CNC(=O)CCOCCOCCOCCOCCNC(=O)[C@H]2CC[C@H](CN)CC2)cc1 [TXA-dPEG4-AMB]
Ki (Human plasmin; [5]): 0.042 ± 0.0124 mM
rp1: relative potency = Ki^AMB/Ki^multi (Human plasmin; plasmin, S-2251 100-500 μM): 33
rp2: relative potency = Ki^TXA or EACA/Ki^multi (Human plasmin; plasmin, S-2251 100-500 μM): 509
fold stronger than m-dPEG4-AMB (plasmin inhibition) (Human plasmin; plasmin, relative to m-dPEG4-AMB, S-2251 100-500 μM): over 7 fold
Ki (thrombin; [4]): 14.5 ± 6.7 µM
Ki (tPA): 230 ± 30 µM

N=C(N)c1ccc(CNC(=O)CCOCCOCCOCCOCCOCCOCCOCCOCCNC(=O)[C@H]2CC[C@H](CN)CC2)cc1 [TXA-dPEG8-AMB]
Ki (Human plasmin; [5]): 0.099 ± 0.0009 mM
rp1: relative potency = Ki^AMB/Ki^multi (Human plasmin; plasmin, S-2251 100-500 μM): 14
rp2: relative potency = Ki^TXA or EACA/Ki^multi (Human plasmin; plasmin, S-2251 100-500 μM): 216

N=C(N)c1ccc(CNC(=O)CCOCCOCCOCCOCCOCCOCCOCCOCCOCCOCCOCCOCCNC(=O)[C@H]2CC[C@H](CN)CC2)cc1 [TXA-dPEG12-AMB]
Ki (Human plasmin; [5]): 0.207 mM
rp1: relative potency = Ki^AMB/Ki^multi (Human plasmin; plasmin, S-2251 100-500 μM): 7
rp2: relative potency = Ki^TXA or EACA/Ki^multi (Human plasmin; plasmin, S-2251 100-500 μM): 103
Ki (thrombin; [4]): 46 ± 1.5 µM
tPA inhibition relative to another inhibitor (tPA): stronger tPA inhibitor than TXA-PEG4-AMB
Ki (tPA): 128 ± 11 µM

N=C(N)c1ccc(CNC(=O)CCOCCOCCOCCOCCOCCOCCOCCOCCOCCOCCOCCOCCOCCOCCOCCOCCOCCOCCOCCOCCOCCOCCOCCOCCOCCOCCOCCOCCOCCOCCOCCOCCOCCOCCOCCOCCNC(=O)[C@H]2CC[C@H](CN)CC2)cc1 [TXA-dPEG36-AMB]
Ki (Human plasmin; [5]): 0.075 mM and 0.0754 mM
rp1: relative potency = Ki^AMB/Ki^multi (Human plasmin; plasmin, S-2251 100-500 μM): 19
rp2: relative potency = Ki^TXA or EACA/Ki^multi (Human plasmin; plasmin, S-2251 100-500 μM): 285
Ki (thrombin; [4]): 78 ± 1.5 µM

N=C(N)c1ccc(CNC(=O)CN(CC(=O)NCc2ccc(C(=N)N)cc2)CC(=O)NCc2ccc(C(=N)N)cc2)cc1 [Tri-AMB]
Ki (thrombin; [4]): 10.6 ± 2 µM
thrombin inhibition compared to plasmin (thrombin): slightly weaker thrombin inhibitors compared to plasmin
Ki (tPA): 112 ± 21 µM
tPA inhibition compared to plasmin (tPA): weaker tPA inhibitors compared to plasmin

N=C(N)c1ccc(CNC(=O)CCOCCOCCOCCOCCNC(=O)CN(CC(=O)NCCOCCOCCOCCOCCC(=O)NCc2ccc(C(=N)N)cc2)CC(=O)NCCOCCOCCOCCOCCC(=O)NCc2ccc(C(=N)N)cc2)cc1 [Tri-dPEG4-AMB]
mode of inhibition (Cornish-Bowden plot) (Human plasmin; plasmin 42.5 nM, PBS pH 7.4): competitive inhibitor
rp: relative potency = Ki^AMB/Ki^multi (Human plasmin; plasmin, S-2251 100-500 μM): 27.6
rp/n: relative potency/number of benzamidine units (Human plasmin; plasmin, S-2251 100-500 μM): 9.2
Ki (Human plasmin; [6]): 0.0505 ± 0.014 mM

COCCOCCOCCOCCOCCOCCOCCOCCOCCOCCOCCOCCC(=O)NCc1ccc(C(=N)N)cc1 [m-dPEG12-AMB]
mode of inhibition (Cornish-Bowden plot) (Human plasmin; plasmin 42.5 nM, PBS pH 7.4): competitive inhibitor
rp: relative potency = Ki^AMB/Ki^multi (Human plasmin; plasmin, S-2251 100-500 μM): 3.9
rp/n: relative potency/number of benzamidine units (Human plasmin; plasmin, S-2251 100-500 μM): 3.9
Ki (Human plasmin; [6]): 0.36 ± 0.0352 mM

COCCOCCOCCOCCOCCOCCOCCOCCOCCOCCOCCOCCOCCOCCOCCOCCOCCOCCOCCOCCOCCOCCOCCOCCC(=O)NCc1ccc(C(=N)N)cc1 [m-dPEG24-AMB]
mode of inhibition (Cornish-Bowden plot) (Human plasmin; plasmin 42.5 nM, PBS pH 7.4): competitive inhibitor
rp: relative potency = Ki^AMB/Ki^multi (Human plasmin; plasmin, S-2251 100-500 μM): 2.7
rp/n: relative potency/number of benzamidine units (Human plasmin; plasmin, S-2251 100-500 μM): 2.7
Ki (Human plasmin; [6]): 0.521 ± 0.0849 mM
